Laboratory results reported in patent US20200131144A1, “AMINE OR (THIO)AMIDE CONTAINING LXR MODULATORS” (Phenex-FXR GmbH, priority 2017, published 2020).
Read-outs that look alike come from different tables or passages of the source.

Key:
[1] = target: T1, GST-LXRβ ligand-binding domain (Homo sapiens, UniProt P55055, INS174Q); experiment: TR-FRETβ activity assay (NCoA3 coactivator peptide recruitment); format: biochemical; conditions: 1 μM 24(S)-25-epoxycholesterol as prestimulating agonist; inverse agonist unless *
T1 construct: amino acids 156-461; NP009052; made in house; host or cells: E. coli
T1 sequence (P55055 with tags, fused parts or gaps INS174Q limits assumed): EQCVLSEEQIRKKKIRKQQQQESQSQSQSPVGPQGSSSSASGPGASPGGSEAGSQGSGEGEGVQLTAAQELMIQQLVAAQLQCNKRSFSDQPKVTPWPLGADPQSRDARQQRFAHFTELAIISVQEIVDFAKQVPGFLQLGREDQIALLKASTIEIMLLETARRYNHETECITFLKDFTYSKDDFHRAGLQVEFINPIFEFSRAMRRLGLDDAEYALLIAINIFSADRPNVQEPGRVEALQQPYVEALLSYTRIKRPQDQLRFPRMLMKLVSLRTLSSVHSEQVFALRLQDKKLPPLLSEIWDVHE
Summary of the method: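 E. coli-expressed GST-LXRβ LBD (aa 156-461, 76 nM) with biotinylated NCoA3 peptide (400 nM), anti-GST-Tb cryptate donor and streptavidin-XL665 acceptor in 240 mM KCl, BSA, 0.002% Triton X-100. Equilibrated 1 h at 4° C; TR-FRET read at 615/665 nm, triplicates.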

[2] = Pharmacokinetics in mice after single oral dosing, blood and liver exposure by LC-MS; format: in vivo, mice (C57/bl6/J); conditions: single oral dose 20 mg/kg; for Kp at 4 h / Kp at 12 h / Kp at 24 h: male, C57/bl6/J, mouse, liver/blood, read-out: liver/blood ratio
Summary of the method: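 Male C57BL/6J mice fasted ≥12 h, given a single oral dose of 20 mg/kg (n=3 per group). Sacrifice at 4, 12 or 24 h post-dose; liver and blood levels quantified by LC-MS.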

[3] = Short term HFD mouse model: liver and plasma exposure after multiple oral dosing; format: in vivo, mice (C57BL/6J); conditions: C57BL/6J, HFD mice, 4 h after final dose; for Kp at 4 h: liver/plasma, read-out: liver/plasma ratio, 4 h
From the text: Short Term HFD Mouse Model:
For this, C57BL/6J were purchased from Elevage Janvier (Rennes, France) at the age of 8 weeks. After an acclimation period of two weeks, animals were prefed on a high fat diet (HFD) (Ssniff Spezialdiäten GmbH, Germany, Surwit EF D12330 mod, Cat. No. E15771-34), with 60 kcal % from fat plus 1% (w/w) extra cholesterol (Sigma-Aldrich, St. Louis, Mo.) for 5 days. Animals were maintained on this diet during treatment with LXR modulators. The test compounds were formulated in 0.5% hydroxypropylmethylcellulose (HPMC) and administered in three doses (from 1.5 to 20 mg/kg each) by oral gavage according to the following schedule: on day one, animals received treatment in the morning and the evening (ca. 17:00), on day two animals received the final treatment in the morning after a 4 h fast and were sacrificed 4 h thereafter. Animal work was conducted according to the national guidelines for animal care in Germany.
Multiple oral dosing of compounds from the present invention in mice lead to a high liver exposure with a favourable liver to plasma ratio. […] These genes are related to hepatic de-novo lipogenesis. A suppression of these genes will reduce liver fat (liver triglycerides).

[4] = liver, three oral doses of 10 mg/kg each, read-out: liver exposure, 4 h
[5] = three oral doses of 10 mg/kg each
[6] = plasma, three oral doses of 10 mg/kg each, read-out: plasma exposure, 4 h
[7] = liver, three oral doses of 20 mg/kg each, read-out: liver exposure, 4 h
[8] = three oral doses of 20 mg/kg each
[9] = plasma, three oral doses of 20 mg/kg each, read-out: plasma exposure, 4 h
[10] = liver, three oral doses of 1.5 mg/kg each, read-out: liver exposure, 4 h
[11] = three oral doses of 1.5 mg/kg each
[12] = plasma, three oral doses of 1.5 mg/kg each, read-out: plasma exposure, 4 h

SMILES | EC50 [1] | Kp at 4 h ([2]; time point 4 h) | blood/plasma exposure ([2]; time point 4 h) | liver exposure ([2]; time point 4 h) | concentration at 4 h [3, 4] | Kp at 4 h [3, 5] | concentration at 4 h [3, 6] | concentration at 4 h [3, 7] | Kp at 4 h [3, 8] | concentration at 4 h [3, 9] | other results
Cc1cc(C)c(C(=O)N(Cc2ccc(-c3cccc(C(C)(C)C(=O)O)c3)cc2)Cc2ccc(C(F)(F)F)o2)c(C)c1 [10/1] | 100 to 1000 nM |  |  |  |  |  |  |  |  |  | 
Cc1ccc2ccccc2c1C(=O)N(Cc1ccc(-c2cccc([C@@H](C)C(=O)O)c2)cc1)Cc1ccc(C(F)(F)F)o1 [10/5] | < 100 nM | 45 | 1.06 µM | 47.9 µM | 24.9 µM | 7.9 | 3.16 µM |  |  |  | 
Cc1ccc2ccccc2c1C(=O)N(Cc1ccc(-c2cc(F)c(CO)c(S(=O)(=O)CC(=O)O)c2)cc1)Cc1ccc(C(F)(F)F)o1 [22/8] | 1000 to 10000 nM | 19 | 1.3 µM | 23 µM |  |  |  | 2.82 µM | 55.7 | 0.051 µM | Kp at 12 h ([2]; time point 12 h): 27; blood/plasma exposure ([2]; time point 12 h): 0.15 µM; liver exposure ([2]; time point 12 h): 4.1 µM
Cc1ccc2ccccc2c1C(=O)N(Cc1ccc(C(F)(F)F)o1)Cc1ccc(-c2cccc(C(C)(C)C(=O)O)c2)cc1C#N [27/7] | < 100 nM |  |  |  |  |  |  | 14.8 µM | 52.5 | 0.281 µM | 
Cc1ccc2ccccc2c1C(=O)N(Cc1ccc(-c2cccc(C(C)(O)C(=O)O)c2)cc1)Cc1ccc(C(F)(F)F)o1 (centres unmarked) [27/10] | 100 to 1000 nM |  |  |  | 43.3 µM | 30 | 1.44 µM |  |  |  | Kp at 12 h ([2]; time point 12 h): 129; blood/plasma exposure ([2]; time point 12 h): 0.01 µM; liver exposure ([2]; time point 12 h): 1.3 µM; concentration at 4 h ([3]; liver, three oral doses of 3 mg/kg each, read-out: liver exposure, 4 h): 9.93 µM; Kp at 4 h ([3]; three oral doses of 3 mg/kg each): 211; concentration at 4 h ([3]; plasma, three oral doses of 3 mg/kg each, read-out: plasma exposure, 4 h): 0.047 µM
COc1ccc2c(c1CN(Cc1ccc(-c3cccc(C(C)(C)C(=O)O)c3)cc1)Cc1ccc(C(F)(F)F)o1)CCCC2 [27/17] | 100 to 1000 nM |  |  |  | 6.8 µM | 2.3 | 2.92 µM |  |  |  | 
Cc1ccc2ccccc2c1C(=O)N(Cc1ccc(-c2cccc(C(C)(C)C(=O)O)c2)cc1)Cc1ccc(C(F)(F)F)o1 [27/26] | < 100 nM | 5.5 | 16 µM | 89 µM |  |  |  | 44.6 µM | 2.9 | 15.3 µM | Kp at 12 h ([2]; time point 12 h): 3.3; Kp at 24 h ([2]; time point 24 h): 3.6; blood/plasma exposure ([2]; time point 12 h): 6.4 µM; liver exposure ([2]; time point 12 h): 21 µM; blood/plasma exposure ([2]; time point 24 h): 0.75 µM; liver exposure ([2]; time point 24 h): 2.7 µM; concentration at 4 h [3, 10]: 6.73 µM; Kp at 4 h [3, 11]: 6.5; concentration at 4 h [3, 12]: 1.04 µM
CCOC(=O)c1ccc(CN(Cc2ccc(-c3cccc(C(C)(C)C(=O)O)c3)cc2)C(=O)c2c(C)ccc3ccccc23)o1 [27/28] | < 100 nM | 844 | 0.05 µM | 38.8 µM |  |  |  | 13.8 µM | 1790 | 0.008 µM | concentration at 4 h [3, 10]: 4.3 µM; Kp at 4 h [3, 11]: 600; concentration at 4 h [3, 12]: 0.007 µM
Cc1ccc2ccccc2c1C(=O)N(Cc1ccc(-c2cccc(C(C)(C)C(=O)O)c2)cc1)Cc1ccc(C(F)F)o1 [27/36] | 100 to 1000 nM |  |  |  | 80.2 µM | 26.6 | 3.02 µM |  |  |  | 
Cc1ccc2ccccc2c1C(=O)N(Cc1ccc(-c2cccc(C(C)(C)C(=O)O)c2)cc1)Cc1ccc(C#N)o1 [27/38] | < 100 nM |  |  |  |  |  |  | 37.5 µM | 15.8 | 2.37 µM | 
CCc1nc2ccccc2c(C(=O)N(Cc2ccc(-c3cccc(C(C)(C)C(=O)O)c3)cc2)Cc2ccc(C(F)(F)F)o2)c1C [27/43] | 1000 to 10000 nM |  |  |  |  |  |  | 44.3 µM | 32.5 | 1.36 µM | Kp at 12 h ([2]; time point 12 h): 49; blood/plasma exposure ([2]; time point 12 h): 0.03 µM; liver exposure ([2]; time point 12 h): 1.3 µM
COc1ccc2c(c1C(=O)N(Cc1ccc(-c3cccc(C(C)(C)C(=O)O)c3)cc1)Cc1ccc(C(F)(F)F)o1)CCCC2 [27/45] | < 100 nM |  |  |  | 320 µM | 367 | 0.871 µM |  |  |  | 
CC(C)(C(=O)O)c1cccc(-c2ccc(CN(Cc3ccc(C(F)(F)F)o3)C(=O)c3c4ccccc4cc4ccccc34)cc2)c1 [27/47] | < 100 nM |  |  |  |  |  |  | 38.4 µM | 36 | 1.07 µM | 
COc1cc(-c2cccc(C(C)(C)C(=O)O)c2)ccc1CN(Cc1ccc(C(F)(F)F)o1)C(=O)c1c(C)ccc2ccccc12 [27/66] | 100 to 1000 nM |  |  |  | 75.3 µM | 189 | 0.399 µM |  |  |  | 
Cc1ccc2ccccc2c1C(=O)N(Cc1ccc(-c2cc(F)cc(C3(C(=O)O)CC3)c2)cc1)Cc1ccc(C(F)(F)F)o1 [27/76] | 100 to 1000 nM |  |  |  | 37.9 µM | 16.4 | 2.31 µM |  |  |  | 
Cc1ccc2ccccc2c1C(=O)N(Cc1ccc(C(F)(F)F)o1)Cc1ncc(-c2cccc(C(C)(C)C(=O)O)c2)cc1Cl [27/78] | < 100 nM | 116 | 0.35 µM | 40.9 µM | 18.4 µM | 61.3 | 0.3 µM |  |  |  | 
Cc1nc2ccccc2c(C(=O)N(Cc2ccc(-c3cccc(C(C)(C)C(=O)O)c3)cc2)Cc2ccc(C(F)(F)F)o2)c1C [27/79] | 100 to 1000 nM |  |  |  | 36.5 µM | 39.2 | 0.931 µM |  |  |  | 
COc1c(C)nc2ccccc2c1C(=O)N(Cc1ccc(-c2cccc(C(C)(C)C(=O)O)c2)cc1)Cc1ccc(C(F)(F)F)o1 [27/81] | 100 to 1000 nM |  |  |  | 43.2 µM | 50.8 | 0.849 µM |  |  |  | 
Cc1nc2cccnc2c(C(=O)N(Cc2ccc(-c3cccc(C(C)(C)C(=O)O)c3)cc2)Cc2ccc(C(F)(F)F)o2)c1C [27/93] | 100 to 1000 nM |  |  |  | 155 µM | 73.7 | 2.1 µM |  |  |  | 
Cc1ccc2ccccc2c1C(=O)N(Cc1ccc(-c2cccc(S(=O)(=O)CC(=O)O)c2)cc1)Cc1ccc(C(F)(F)F)o1 [Example 9] | 1000 to 10000 nM | 72 | 0.18 µM | 12.7 µM |  |  |  | 18.2 µM | 135 | 0.134 µM | Kp at 24 h ([2]; time point 24 h): 25; blood/plasma exposure ([2]; time point 24 h): 0.00 µM; liver exposure ([2]; time point 24 h): 0.10 µM
